# Data: ChEMBL document CHEMBL5649166, “RIP3 induces apoptosis independent of pronecrotic kinase activity” (Mol Cell, 2014)
# Assays:
# [1] = molecular target: T1, Ephrin type-B receptor 2 (Homo sapiens) (UniProt P29323); assay: Inhibition of human EPHB2 using poly[Glu:Tyr] (4:1) as substrate at 1 uM in presence of 32P-ATP by Hotspot assay relative to control; values are per cent of control
# T1 sequence (whole entry): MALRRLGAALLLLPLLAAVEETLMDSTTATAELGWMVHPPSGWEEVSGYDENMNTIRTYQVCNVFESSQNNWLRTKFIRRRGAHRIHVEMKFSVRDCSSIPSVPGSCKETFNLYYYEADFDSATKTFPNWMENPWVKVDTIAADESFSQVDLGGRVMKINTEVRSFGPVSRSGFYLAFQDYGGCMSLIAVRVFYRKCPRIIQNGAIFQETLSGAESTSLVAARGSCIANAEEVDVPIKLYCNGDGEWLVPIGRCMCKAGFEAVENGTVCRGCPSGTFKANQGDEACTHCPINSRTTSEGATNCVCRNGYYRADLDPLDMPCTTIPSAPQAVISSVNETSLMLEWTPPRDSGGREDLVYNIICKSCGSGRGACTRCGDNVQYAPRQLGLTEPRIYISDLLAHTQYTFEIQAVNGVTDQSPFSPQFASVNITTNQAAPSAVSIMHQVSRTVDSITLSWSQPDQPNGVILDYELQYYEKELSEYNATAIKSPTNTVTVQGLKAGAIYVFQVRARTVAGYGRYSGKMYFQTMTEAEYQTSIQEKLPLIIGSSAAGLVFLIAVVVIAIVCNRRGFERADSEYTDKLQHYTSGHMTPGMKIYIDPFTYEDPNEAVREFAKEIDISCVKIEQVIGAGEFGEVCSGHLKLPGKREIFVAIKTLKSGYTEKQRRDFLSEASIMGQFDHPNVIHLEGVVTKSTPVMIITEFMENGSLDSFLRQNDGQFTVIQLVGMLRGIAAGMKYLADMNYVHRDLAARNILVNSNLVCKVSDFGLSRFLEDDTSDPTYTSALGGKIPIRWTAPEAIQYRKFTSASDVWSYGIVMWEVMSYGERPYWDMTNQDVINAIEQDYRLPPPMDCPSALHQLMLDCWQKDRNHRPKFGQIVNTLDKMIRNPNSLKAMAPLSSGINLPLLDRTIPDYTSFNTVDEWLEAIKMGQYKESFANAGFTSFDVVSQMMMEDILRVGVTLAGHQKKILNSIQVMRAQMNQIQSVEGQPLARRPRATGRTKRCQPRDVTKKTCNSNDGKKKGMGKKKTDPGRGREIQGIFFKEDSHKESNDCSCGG
# [2] = molecular target: Serine/threonine-protein kinase B-raf (Homo sapiens) (UniProt P15056); assay: Inhibition of human BRAF using MEK1 (K97R) as substrate at 1 uM in presence of 32P-ATP by Hotspot assay relative to control; values are per cent of control
# Sequence of Serine/threonine-protein kinase B-raf (Homo sapiens) (P15056 whole entry): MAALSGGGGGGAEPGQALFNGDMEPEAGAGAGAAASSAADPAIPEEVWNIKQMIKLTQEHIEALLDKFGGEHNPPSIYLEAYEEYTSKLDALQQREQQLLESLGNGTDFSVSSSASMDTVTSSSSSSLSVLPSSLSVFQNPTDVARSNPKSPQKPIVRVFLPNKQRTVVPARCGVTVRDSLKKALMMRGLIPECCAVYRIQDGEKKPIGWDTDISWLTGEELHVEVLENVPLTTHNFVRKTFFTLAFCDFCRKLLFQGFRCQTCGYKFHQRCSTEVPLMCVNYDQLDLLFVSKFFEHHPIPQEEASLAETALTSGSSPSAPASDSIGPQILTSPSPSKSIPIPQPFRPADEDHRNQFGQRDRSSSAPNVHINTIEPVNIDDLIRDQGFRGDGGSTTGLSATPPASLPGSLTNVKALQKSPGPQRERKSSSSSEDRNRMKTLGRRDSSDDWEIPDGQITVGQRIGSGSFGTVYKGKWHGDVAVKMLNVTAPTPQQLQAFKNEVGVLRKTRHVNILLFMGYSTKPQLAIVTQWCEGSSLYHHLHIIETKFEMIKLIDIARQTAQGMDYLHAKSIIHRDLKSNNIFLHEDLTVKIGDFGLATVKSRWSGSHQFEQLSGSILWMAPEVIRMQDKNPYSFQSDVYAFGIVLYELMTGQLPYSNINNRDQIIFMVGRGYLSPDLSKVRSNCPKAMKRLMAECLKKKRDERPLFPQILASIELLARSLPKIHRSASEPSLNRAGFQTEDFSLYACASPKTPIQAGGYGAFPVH
# [3] = molecular target: T2, Serine/threonine-protein kinase D1 (Homo sapiens) (UniProt Q15139); assay: Residual activity of human PKCmu/PRKD1 using KKLNRTLSVA as substrate at 1 uM in presence of 32P-ATP by Hotspot assay relative to control
# T2 sequence (whole entry): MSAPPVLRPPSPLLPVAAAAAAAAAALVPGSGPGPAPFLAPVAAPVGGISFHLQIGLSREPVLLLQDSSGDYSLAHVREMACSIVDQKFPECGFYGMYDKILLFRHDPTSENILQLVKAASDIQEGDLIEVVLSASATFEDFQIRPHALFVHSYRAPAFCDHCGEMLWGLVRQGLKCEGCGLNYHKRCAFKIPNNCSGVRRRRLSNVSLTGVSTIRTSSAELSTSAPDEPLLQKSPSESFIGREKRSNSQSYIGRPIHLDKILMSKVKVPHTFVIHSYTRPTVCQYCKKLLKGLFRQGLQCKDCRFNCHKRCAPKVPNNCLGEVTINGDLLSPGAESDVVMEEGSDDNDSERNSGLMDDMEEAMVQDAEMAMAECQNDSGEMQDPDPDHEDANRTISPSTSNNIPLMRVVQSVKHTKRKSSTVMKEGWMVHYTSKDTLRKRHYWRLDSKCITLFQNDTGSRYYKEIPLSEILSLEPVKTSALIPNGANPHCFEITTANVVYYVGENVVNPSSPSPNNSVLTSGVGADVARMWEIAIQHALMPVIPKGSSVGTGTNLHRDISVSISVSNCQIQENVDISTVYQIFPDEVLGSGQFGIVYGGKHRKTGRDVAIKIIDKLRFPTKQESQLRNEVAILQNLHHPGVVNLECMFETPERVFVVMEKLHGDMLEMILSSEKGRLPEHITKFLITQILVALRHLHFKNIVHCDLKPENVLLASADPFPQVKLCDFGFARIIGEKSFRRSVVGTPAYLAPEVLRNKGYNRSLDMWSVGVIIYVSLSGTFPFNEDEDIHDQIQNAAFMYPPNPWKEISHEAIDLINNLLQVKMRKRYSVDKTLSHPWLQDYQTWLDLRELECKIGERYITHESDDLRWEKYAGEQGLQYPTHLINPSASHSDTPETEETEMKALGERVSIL
# [4] = molecular target: T3, cGMP-dependent protein kinase 2 (Homo sapiens) (UniProt Q13237); assay: Inhibition of human PKG2/PRKG2 using LRRASLG as substrate at 1 uM in presence of 32P-ATP by Hotspot assay relative to control; values are per cent of control
# T3 sequence (whole entry): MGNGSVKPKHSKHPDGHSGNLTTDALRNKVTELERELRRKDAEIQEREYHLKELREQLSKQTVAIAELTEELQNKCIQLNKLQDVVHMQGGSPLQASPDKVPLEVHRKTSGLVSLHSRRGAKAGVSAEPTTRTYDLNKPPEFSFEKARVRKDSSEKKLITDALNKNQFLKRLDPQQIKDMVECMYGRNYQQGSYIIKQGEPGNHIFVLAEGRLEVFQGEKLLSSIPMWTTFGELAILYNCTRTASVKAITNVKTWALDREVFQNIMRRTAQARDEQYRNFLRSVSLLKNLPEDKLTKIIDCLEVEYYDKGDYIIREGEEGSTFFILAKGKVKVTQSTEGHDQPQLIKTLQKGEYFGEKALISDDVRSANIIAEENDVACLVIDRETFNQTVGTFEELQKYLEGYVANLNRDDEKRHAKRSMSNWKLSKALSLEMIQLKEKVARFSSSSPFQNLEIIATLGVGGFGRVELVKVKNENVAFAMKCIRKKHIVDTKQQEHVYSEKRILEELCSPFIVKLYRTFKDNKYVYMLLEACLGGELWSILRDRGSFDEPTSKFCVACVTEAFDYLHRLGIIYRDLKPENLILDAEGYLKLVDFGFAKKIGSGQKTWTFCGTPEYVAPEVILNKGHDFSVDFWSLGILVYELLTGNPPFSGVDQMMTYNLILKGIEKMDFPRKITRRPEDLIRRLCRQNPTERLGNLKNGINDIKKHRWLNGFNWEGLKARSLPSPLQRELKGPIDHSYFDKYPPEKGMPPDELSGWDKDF
SMILES,residual activity [1] [%],residual activity [2] [%],residual activity [3] [%],residual activity [4] [%]
CC(C)S(=O)(=O)c1ccc2nccc(Nc3ccc4scnc4c3)c2c1,78.7,90.2,98.9,94.6
Cc1cc(-c2cnc(N)c3c(-c4ccc5scnc5c4)csc23)n(C)n1,31,79.6,51.6,70.1
CNC(=O)c1ccc2c(c1)ncn2-c1ccc(CC(=O)OC(C)(C)C)cc1,95,96.1,99.5,96.7
